# BindingDB's records for doi:10.7270/Q26112HR (n/a, 1997)
# Molecular target: D(3) dopamine receptor (Homo sapiens, UniProt P35462)
# Experiment: Ability to displace [125I]-sulpiride from human Dopamine receptor D3, expressed in CHO cells
# Sequence of D(3) dopamine receptor (P35462 as listed by the source): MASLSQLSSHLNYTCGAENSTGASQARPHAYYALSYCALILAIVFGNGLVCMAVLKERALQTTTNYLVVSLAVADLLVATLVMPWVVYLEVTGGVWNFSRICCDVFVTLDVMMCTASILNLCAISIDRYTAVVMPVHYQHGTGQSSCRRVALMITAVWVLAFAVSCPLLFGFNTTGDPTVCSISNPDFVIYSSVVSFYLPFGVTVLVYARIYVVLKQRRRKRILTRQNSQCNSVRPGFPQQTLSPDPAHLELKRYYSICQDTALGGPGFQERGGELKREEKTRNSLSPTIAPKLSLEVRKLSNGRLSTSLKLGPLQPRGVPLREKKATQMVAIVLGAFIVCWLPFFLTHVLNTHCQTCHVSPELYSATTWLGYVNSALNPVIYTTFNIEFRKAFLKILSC
structure (smiles),measurement,value
CCS(=O)(=O)c1ccc(OC)c(-c2ccc(CN3CCCCCC3c3ccccc3)[nH]2)c1 (stereo unspecified),Ki,1.3 nM
